Source: patent US8399439B2, “2-methylene-19,26-dinor-(20S,22E,25R)-vitamin D analogs” (Wisconsin Alumni Research Foundation, priority 2008, dated 2013)

What was measured:
vitamin D-deficient rats [1] = assay: Bone calcium mobilization (serum calcium); type: in vivo, rat; conditions: rats on low calcium diet (0.02%), FIG. 4
Procedure: (§1) Male, weanling Sprague-Dawley rats were placed on Diet 11 (0.47% Ca) diet+AEK oil for one week followed by Diet 11 (0.02% Ca)+AEK oil for 3 weeks. The rats were then switched to a diet containing 0.47% Ca for one week followed by two weeks on a diet containing 0.02% Ca. Dose administration began during the last week on 0.02% calcium diet. Four consecutive ip doses were given approximately 24 hours apart. Twenty-four hours after the last dose, blood was collected from the severed neck and the concentration of serum calcium determined as a measure of bone calcium mobilization. The first 10 cm of the intestine was also collected for intestinal calcium transport analysis using the everted gut sac method.
Calcium mobilization from bone and intestinal calcium absorption in vitamin D-deficient animals. Using vitamin D-deficient rats on a low calcium diet (0.02%), the activities of SOR-1 and 1,25(OH)2D3 in intestine and bone were tested.

[2] = test system: 24-hydroxylase (24Ohase) gene promoter; assay: In vitro transcription assay, luciferase reporter in ROS 17/2.8 (bone) cells; type: cell-based; conditions: for EC50: ROS 17/2.8 cells, 24-hydroxylase promoter-luciferase, 16 h, FIG. 3, read-out: EC50, transcriptional activity in bone cells
Procedure: Transcription activity was measured in ROS 17/2.8 (bone) cells that were stably transfected with a 24-hydroxylase (24Ohase) gene promoter upstream of a luciferase reporter gene (Arbour et al., 1998). Cells were given a range of doses. Sixteen hours after dosing the cells were harvested and luciferase activities were measured using a luminometer.
RLU=relative luciferase units.

[3] = molecular target: T1, full-length recombinant rat vitamin D receptor (Rattus norvegicus, UniProt P13053); assay: Vitamin D receptor competitive binding with [3H]-1,25(OH)2D3; conditions: full-length recombinant rat VDR; FIG. 1; read-out: Ki, competition with [3H]-1,25(OH)2D3 for binding to vitamin D receptor
T1 construct: Full-length recombinant rat receptor was expressed in E. coli; His tag (C); made in house; host or cells: E. coli BL21 (DE3) Codon Plus RIL
T1 sequence (P13053 1-423): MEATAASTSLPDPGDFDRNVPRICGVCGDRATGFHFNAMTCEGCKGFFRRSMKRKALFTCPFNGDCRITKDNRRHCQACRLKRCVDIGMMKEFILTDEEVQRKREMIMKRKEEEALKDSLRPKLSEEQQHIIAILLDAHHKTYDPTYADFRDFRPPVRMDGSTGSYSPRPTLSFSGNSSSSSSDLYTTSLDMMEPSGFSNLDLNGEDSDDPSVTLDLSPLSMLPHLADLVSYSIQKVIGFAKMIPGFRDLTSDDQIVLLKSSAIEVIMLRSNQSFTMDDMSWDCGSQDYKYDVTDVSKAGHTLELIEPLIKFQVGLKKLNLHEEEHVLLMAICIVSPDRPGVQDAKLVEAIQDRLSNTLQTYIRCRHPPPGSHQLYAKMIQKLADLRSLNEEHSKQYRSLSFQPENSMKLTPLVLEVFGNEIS
Procedure: Full-length recombinant rat receptor was expressed in E. coli BL21 (DE3) Codon Plus RIL cells and purified to homogeneity using two different column chromatography systems. The first system was a nickel affinity resin that utilizes the C-terminal histidine tag on this protein. The protein that was eluted from this resin was further purified using ion exchange chromatography (S-Sepharose Fast Flow). Aliquots of the purified protein were quick frozen in liquid nitrogen and stored at −80° C. until use. For use in binding assays, the protein was diluted in TEDK50 (50 mM Tris, 1.5 mM EDTA, pH7.4, 5 mM DTT, 150 mM KCl) with 0.1% Chaps detergent. The receptor protein and ligand concentration were optimized such that no more than 20% of the added radiolabeled ligand was bound to the receptor.
Radiolabeled and unlabeled ligands were added to 100 mcl of the diluted protein at a final ethanol concentration of ≦10%, mixed and incubated overnight on ice to reach binding equilibrium. The following day, 100 mcl of hydroxylapatite slurry (50%) was added to each tube and mixed at 10-minute intervals for 30 minutes. The hydroxylapaptite was collected by centrifugation and then washed three times with Tris-EDTA buffer (50 mM Tris, 1.5 mM EDTA, pH 7.4) containing 0.5% Titron X-100. […] Total binding was determined from the tubes containing only radiolabeled ligand.

HL-60 cells = assay: HL-60 cell differentiation (nitro blue tetrazolium reduction); type: cell-based, human; conditions: for EC50: HL-60 cells, 4 days, FIG. 2
Procedure: The study drugs were dissolved in ethanol and the concentrations determined using UV spectrophotometry. Serial dilutions were prepared so that a range of drug concentrations could be tested without changing the final concentration of ethanol (≦0.2%) present in the cell cultures.
Human promyelocytic leukemia (HL60) cells were grown in RPMI-1640 medium containing 10% fetal bovine serum. The cells were incubated at 37° C. in the presence of 5% CO2.
HL60 cells were plated at 1.2×10^5 cells/ml. Eighteen hours after plating, cells in duplicate were treated with drug. Four days later, the cells were harvested and a nitro blue tetrazolium reduction assay was performed (Collins et al., 1979; J. Exp. Med. 149:969-974). The percentage of differentiated cells was determined by counting a total of 200 cells and recording the number that contained intracellular black-blue formazan deposits. Verification of differentiation to monocytic cells was determined by measuring phagocytic activity (data not shown).

vitamin D-deficient rats [4] = assay: Intestinal calcium transport (everted gut sac method); type: in vivo, rat; conditions: FIG. 5
Procedure: as §1
Intestinal calcium transport was evaluated in the same group of animals using the everted gut sac method (FIG. 5).

[5] = 2,340 pmol/day ip for 4 consecutive days
[6] = fold more active than 1α,25-dihydroxyvitamin D3
[7] = 780 pmol/day ip for 4 consecutive days

Ki [3] [nM] | EC50 (HL-60 cells; Homo sapiens, 96 h) [nM] | SMILES | bone calcium mobilization (vitamin D-deficient rats [1]; [5]) | EC50 [2] [nM] | transcriptional activity in bone cells relative to 1α,25-dihydroxyvitamin D3 [2, 6] | HL-60 cell differentiation activity relative to 1α,25-dihydroxyvitamin D3 (HL-60 cells; [6]) | intestinal calcium transport activity (vitamin D-deficient rats [4]; [7]) | intestinal calcium transport activity (vitamin D-deficient rats [4]; [5]) | bone calcium mobilization (vitamin D-deficient rats [1]; [7]) | serum calcium levels (vitamin D-deficient rats [1]; all dosages) | EC50 (HL-60 cells) [nM]
0.1 | 0.9 | C=C1[C@H](O)CC(=C/C=C2\CCC[C@]3(C)[C@@H]([C@@H](C)/C=C/C[C@@H](C)O)CC[C@@H]23)C[C@H]1O [SOR-1, 2-methylene-19,26-dinor-(20S,22E,25R)-1α,25-dihydroxyvitamin D3] | did not result in any mobilization of bone calcium | 0.08 | about 3 times | about 3 times | almost no activity as compared to 1,25(OH)2D3 | activity similar to 1,25(OH)2D3 |  |  | 
 |  | C=C1/C(=C\C=C2/CCC[C@]3(C)[C@@H]([C@H](C)CCCC(C)(C)O)CC[C@@H]23)C[C@@H](O)C[C@@H]1O [1α,25-dihydroxyvitamin D3, reference compound] |  | 0.2 |  |  |  |  | significant activity | increased serum calcium levels at all dosages | 2
